# Molecular target: T1, BRD4 (BD1) (Homo sapiens, UniProt O60885)
# T1 construct: with relatively long constructs also being possible, preferably amino acids 44-168; made in house; host or cells: E. coli
# Assay: Binding assay BRD4/acetylated peptide H4 (TR-FRET protein-protein interaction assay)
# Conditions: not given
# Text: Binding Assay BRD4/Acetylated Peptide H4 (“PRO”)
# To assess the BRD4 binding of the substances described in the present application, their ability to inhibit the interaction between BRD4 (BD1) and acetylated histone H4 in a dose-dependent manner was quantified (Filippakopoulos et al., Cell, 2012, 149: 214-231).
# For this purpose, use was made of a time-resolved fluorescence resonance energy transfer (TR-FRET) assay which measured binding between N-terminally His6-tagged BRD4 (BD1) (amino acids 67-152, with relatively long constructs also being possible, preferably amino acids 44-168) and a synthetic acetylated histone H4 (Ac—H4) peptide having the sequence GRGK(Ac)GGK(Ac)GLGK(Ac)GGAK(Ac)RHGSGSK-biotin. The recombinant BRD4 protein-produced according to Filippakopoulos et al., Cell, 2012, 149: 214-231—was expressed in E. coli and purified by (Ni-NTA) affinity and (Sephadex G-75) size exclusion chromatography. The Ac—H4 peptide is commercially available, for example from Biosyntan (Berlin, Germany). In a typical assay, 11 different concentrations of each substance (0.1 nM, 0.33 nM, 1.1 nM, 3.8 nM, 13 nM, 44 nM, 0.15 μM, 0.51 μM, 1.7 μM, 5.9 μM and 20 μM) were measured in duplicate on the same microtitre plate. To this end, 100-fold concentrated solutions in DMSO were prepared by serial dilution (1:3.4) of a 2 mM stock solution in a clear 384-well microtitre platte (Greiner Bio-One, Frickenhausen, Germany) 50 nl of these were transferred into a black test plate (Greiner Bio-One, Frickenhausen, Germany). The test was started by addition of 2 μl of a 2.5-fold concentrated BRD4 solution (final concentration usually 10 nM in the […] of the reaction volume) in aqueous assay buffer [50 mM HEPES pH 7.5. 50 mM sodium chloride (NaCl), 0.25 mM CHAPS and 0.05% serum albumin (BSA)] to the substances in the test plate. This was followed by a 10-minute incubation step at 22° C. to pre-equilibrate putative complexes between BRD4 and the substances.
# The mixture was then incubated in the dark for one hour at 22° C. and then for at least 3 hours and at most overnight at 4° C. Formation of BRD4/Ac—H4 complexes was determined by measuring the resonance energy transfer from the streptavidin-Eu cryptate to the anti-6His-XL665 antibody in the reaction. To this end, the fluorescence emission was measured at 620 nm and 665 nm after excitation at 330-350 nm in a TR-FRET measuring device, for example a Rubystar or Pherastar (both from BMG Lab Technologies, Offenburg, Germany) or a Viewlux (Perkin-Elmer). The ratio of the emission at 665 nm and at […] was used as an indicator for the amount of BRD4/Ac—H4 complexes formed.
# The data obtained (ratios) were normalized, with 0% inhibition corresponding to the mean of the measured values of a set of controls (usually 32 data points) comprising all reagents. Here, 50 nl of DMSO (100%) were used instead of test substances. An inhibition of 100% corresponded to the mean of the measured values of a set of controls (usually 32 data points) comprising all reagents except for BRD4. The IC50 was determined by regression analysis based on a 4-parameter equation (minimum, maximum, IC50, Hill; Y=Max+(Min−Max)/(1+(X/IC 50)^Hill)).
row,Compound,IC50 [nM]
1,"CNC(=O)N1N=C(c2ccc(Cl)cc2)c2cc(OCCN3CCOCC3)ccc2CC1C (racemic) [Example 32, (±)-1-(4-Chlorophenyl)-N,4-dimethyl-8-[2-(morpholin-4-yl)ethoxy]-4,5-dihydro-3H-2,3-benzodiazepine-3-carboxamide]",380
2,"CNC(=O)N1N=C(c2ccc(N3CCCCC3=O)cc2)c2cc(OC)c(OC)cc2CC1C (racemic) [Example 35, (±)-7,8-dimethoxy-N,4-dimethyl-1-[4-(2-oxopiperidin-1-yl)phenyl]-4,5-dihydro-3H-2,3-benzodiazepine-3-carboxamide]",220
3,"CNC(=O)N1N=C(c2ccc(N3CCC(O)CC3)cc2)c2cc(OC)c(OC)cc2C[C@H]1C [Example 130.2, (4R)-1-[4-(4-Hydroxypiperidin-1-yl)phenyl]-7,8-dimethoxy-N,4-dimethyl-4,5-dihydro-3H-2,3-benzodiazepine-3-carboxamide]",9870
4,"CNC(=O)N1N=C(c2ccc(N3CCC(OC)CC3)cc2)c2cc(OC)c(OC)cc2C[C@H]1C [Example 179.1, (4R)-7,8-dimethoxy-1-[4-(4-methoxypiperidin-1-yl)phenyl]-N,4-dimethyl-4,5-dihydro-3H-2,3-benzodiazepine-3-carboxamide]",3770
5,"CNC(=O)N1N=C(c2ccc(N3CC(C)(O)C3)cc2)c2cc(OC)c(OC)cc2C[C@H]1C [Example 185.1, (4R)-1-[4-(3-hydroxy-3-methylazetidin-1-yl)phenyl]-7,8-dimethoxy-N,4-dimethyl-4,5-dihydro-3H-2,3-benzodiazepine-3-carboxamide]",1490
6,"CNC(=O)N1N=C(c2ccc(N3CC[C@H](O)C3)cc2)c2cc(OC)c(OC)cc2C[C@@H]1C [Example 190.1, (4S)-1-{4-[(3S)-3-hydroxypyrrolidin-1-yl]phenyl}-7,8-dimethoxy-N,4-dimethyl-4,5-dihydro-3H-2,3-benzodiazepine-3-carboxamide]",30
7,"CNC(=O)N1N=C(c2ccc(N3CCNC(=O)C3)cc2)c2cc(OC)c(OC)cc2C[C@@H]1C [Example 194, (4S)-7,8-dimethoxy-N,4-dimethyl-1-[4-(3-oxopiperazin-1-yl)phenyl]-4,5-dihydro-3H-2,3-benzodiazepine-3-carboxamide]",480
8,"CNC(=O)N1N=C(c2ccc(N3C[C@@H](C)O[C@@H](C)C3)cc2)c2cc(OC)c(OC)cc2C[C@@H]1C [Example 195, (4S)-1-{4-[(2R,6S)-2,6-dimethylmorpholin-4-yl]phenyl}-7,8-dimethoxy-N,4-dimethyl-4,5-dihydro-3H-2,3-benzodiazepine-3-carboxamide]",690
9,"CNC(=O)N1N=C(c2ccc(N3CCN(C)CC3)cc2)c2cc(OC(F)(F)F)ccc2C[C@H]1C [Example 250.1, (4R)-N,4-dimethyl-1-[4-(4-methyl-1-piperazinyl)phenyl]-8-(trifluoromethoxy)-4,5-dihydro-3H-2,3-benzodiazepine-3-carboxamide]",9890
10,"CCNC(=O)N1N=C(c2ccc(N3CCN(C)CC3)cc2)c2cc(OC)c(OC)cc2C[C@@H]1C [Example 261.1, (4S)—N-Ethyl-7,8-dimethoxy-4-methyl-1-[4-(4-methylpiperazin-1-yl)phenyl]-4,5-dihydro-3H-2,3-benzodiazepine-3-carboxamide]",1220

# Now from value to compound:
row,IC50 [nM],Compound
1,180,"CNC(=O)N1N=C(c2cccc(-c3c(C)noc3C)c2)c2cc(OC)c(OC)cc2CC1C (racemic) [Example 31, (±)-1-[3-(3,5-Dimethylisoxazol-4-yl)phenyl]-7,8-dimethoxy-N,4-dimethyl-4,5-dihydro-3H-2,3-benzodiazepine-3-carboxamide]"
2,50,"CNC(=O)N1N=C(c2ccc(N3CCOC3=O)cc2)c2cc(OC)c(OC)cc2CC1C (racemic) [Example 34, (±)-7,8-Dimethoxy-N,4-dimethyl-1-[4-(2-oxooxazolidin-3-yl)phenyl]-4,5-dihydro-3H-2,3-benzodiazepine-3-carboxamide]"
3,18900,"CNC(=O)N1N=C(c2ccc(-c3ccc(C(F)(F)F)nc3)cc2)c2cc(OC)c(OC)cc2C[C@H]1C [Example 50.2, (4R)-7,8-dimethoxy-N,4-dimethyl-1-{4-[6-(trifluoromethyl)pyridin-3-yl]phenyl}-4,5-dihydro-3H-2,3-benzodiazepine-3-carboxamide]"
4,> 20000,"CNC(=O)N1N=C(c2ccc(Cl)cc2)c2cc(OCCCN3CCN(C)CC3)ccc2C[C@H]1C [Example 164.1, (4R)-1-(4-chlorophenyl)-N,4-dimethyl-8-[3-(4-methylpiperazin-1-yl)propoxy]-4,5-dihydro-3H-2,3-benzodiazepine-3-carboxamide]"
5,17400,"CNC(=O)C1CCN(c2ccc(C3=NN(C(=O)NC)[C@H](C)Cc4cc(OC)c(OC)cc43)cc2)CC1 [Example 189.2, (4R)-7,8-dimethoxy-N,4-dimethyl-1-{4-[4-(methylcarbamoyl)piperidin-1-yl]phenyl}-4,5-dihydro-3H-2,3-benzodiazepine-3-carboxamide]"
6,5300,"CNC(=O)N1N=C(c2ccc(N3C[C@@H](C)N[C@@H](C)C3)cc2)c2cc(OC)c(OC)cc2C[C@@H]1C [Example 198, (4S)-1-{4-[(3R,5S)-3,5-dimethylpiperazin-1-yl]phenyl}-7,8-dimethoxy-N,4-dimethyl-4,5-dihydro-3H-2,3-benzodiazepine-3-carboxamide]"
7,6540,"CC[C@@H]1Cc2cc(OC)c(OC)cc2C(c2ccc(N3CCNCC3)cc2)=NN1C(=O)NC [Example 202.2, (4R)-4-ethyl-7,8-dimethoxy-N-methyl-1-[4-(piperazin-1-yl)phenyl]-4,5-dihydro-3H-2,3-benzodiazepine-3-carboxamide]"
8,11200,"CC[C@@H]1Cc2cc(OC)c(OC)cc2C(c2ccc(N3CCN(S(C)(=O)=O)CC3)cc2)=NN1C(=O)NC [Example 203.2, (4R)-4-ethyl-7,8-dimethoxy-N-methyl-1-{4-[4-(methylsulphonyl)piperazin-1-yl]phenyl}-4,5-dihydro-3H-2,3-benzodiazepine-3-carboxamide]"
9,330,"CNC(=O)N1N=C(c2ccc(Cl)cc2)c2ccc(N3CCOC3=O)cc2C[C@@H]1C [Example 230.1, (4S)-1-(4-chlorophenyl)-N,4-dimethyl-7-(2-oxo-1,3-oxazolidin-3-yl)-4,5-dihydro-3H-2,3-benzodiazepine-3-carboxamide]"
10,2340,"CNC(=O)N1N=C(c2ccc(-c3c(C)nn(C)c3C)cc2)c2cc(OC(F)(F)F)ccc2C[C@H]1C [Example 249.2, (4R)-N,4-dimethyl-8-(trifluoromethoxy)-1-[4-(1,3,5-trimethyl-1H-pyrazol-4-yl)phenyl]-4,5-dihydro-3H-2,3-benzodiazepine-3-carboxamide]"

# Tested on: MOLM-13 cells
# Assay: Cell proliferation assay (alamarBlue), MOLM-13
# Type: cell-based
# Conditions: Homo sapiens, 96 hours incubation, inhibition of cell proliferation
# Protocol: In accordance with the invention, the capability of the substances to inhibit cell proliferation was determined Cell viability was determined using the alamarBlue® reagent (Invitrogen) in a Victor X3 Multilabel Reader (Perkin Elmer). The excitation wavelength was 530 nm and the emission wavelenth […].
# The MOLM-13 cells (DSMZ, ACC 554) were sown at a concentration of 4000 cells/well in 100 μl growth medium (RPMI1640, 10% FCS) on 96-well microtitre plates.
# After an overnight incubation at 37° C., the fluorescence values (CI values) were determined. The plates were then treated with various substance dilutions (1E-5 M, 3E-6 M, 1E-6M, 3E-7 M, 1E-7 M, 3E-8 M, 1E-8 M) and incubated at 37° C. for 72 (MV4-11-, LOX-IMVI cells), 96 (MOLM-13-, B16F10-, MDA-MB-431-, Caov-3 cells), 120 (MOLP-8-, KMS-12-PE cells) or 168 (LAPC-4 cells) hours. The fluorescence values (CO values) were then determined. For the data analysis, the CI values were subtracted from the CO values and the results were compared between cells treated with different dilutions of the substance or with buffer solution only. These were used to calculate the IC 50 values (substance concentration required for 50% inhibition of cell proliferation).
row,Compound,IC50 [nM]
1,"CNC(=O)N1N=C(c2ccc(Cl)cc2)c2cc(OCCN3CCOCC3)ccc2CC1C (racemic) [Example 32, (±)-1-(4-Chlorophenyl)-N,4-dimethyl-8-[2-(morpholin-4-yl)ethoxy]-4,5-dihydro-3H-2,3-benzodiazepine-3-carboxamide]",1180
2,"CNC(=O)N1N=C(c2ccc(N3CCCCC3=O)cc2)c2cc(OC)c(OC)cc2CC1C (racemic) [Example 35, (±)-7,8-dimethoxy-N,4-dimethyl-1-[4-(2-oxopiperidin-1-yl)phenyl]-4,5-dihydro-3H-2,3-benzodiazepine-3-carboxamide]",1470

# Next, values leading:
row,IC50 [nM],Compound
1,270,"CNC(=O)N1N=C(c2cccc(-c3c(C)noc3C)c2)c2cc(OC)c(OC)cc2CC1C (racemic) [Example 31, (±)-1-[3-(3,5-Dimethylisoxazol-4-yl)phenyl]-7,8-dimethoxy-N,4-dimethyl-4,5-dihydro-3H-2,3-benzodiazepine-3-carboxamide]"
2,350,"CNC(=O)N1N=C(c2ccc(N3CCOC3=O)cc2)c2cc(OC)c(OC)cc2CC1C (racemic) [Example 34, (±)-7,8-Dimethoxy-N,4-dimethyl-1-[4-(2-oxooxazolidin-3-yl)phenyl]-4,5-dihydro-3H-2,3-benzodiazepine-3-carboxamide]"

# From patent US9890147B2 (BAYER PHARMA AKTIENGESELLSCHAFT, priority 2012, dated 2018)
